This passage reports mold results from patent US11638427B2, “Methods and compositions for altering secondary metabolites in plants” (Impello Biosciences, Inc, priority 2020, dated 2023).

SMILES strings stand for the structures.

The test system of this assay is strawberries. The assay is described as follows: Fruit MDJ dips, 2 weeks observation. It counts as in vivo.

In the case of `CCCCCC1C(=O)CCC1CC(=O)OC` (centres unmarked) [MDJ, methyl dihydrojasmonate], the mold entry (dip 1 M) is given as “prohibited mold for two weeks”; the mold result (dip 5, 10, 20 mM and control) was “mold in all groups after one week”.
